The assay concerns the target CREBBP (Homo sapiens (Human), UniProt Q92793). Description: In vitro enzyme inhibition assay - CREBBP inhibition (AlphaScreen, biotinylated H4-tetraacetyl peptide). The class given is binding. Conditions: Table 28; AlphaScreen, H4-tetraacetyl peptide. The procedure, abridged:
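Displacement of 20 nM biotinylated tetraacetyl-H4 peptide from 50 nM E. coli-expressed His-CREBBP, measured by AlphaScreen after bead equilibration for 2 h.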

Chain of CREBBP (Q92793 1081-1197): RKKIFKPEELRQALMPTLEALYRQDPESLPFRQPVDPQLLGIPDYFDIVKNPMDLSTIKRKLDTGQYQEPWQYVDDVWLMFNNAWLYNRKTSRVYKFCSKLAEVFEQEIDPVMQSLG

In the case of `CCS(=O)(=O)Nc1cc(-c2cc(C)c(=O)n(C)c2)nc(Cc2ccc(F)cc2F)n1` [Example 94, Ethanesulfonic acid [2-(2,4-difluoro-benzyl)-6-(1,5-dimethyl-6-oxo-1,6-dihydro-pyridin-3-yl)-pyrimidin-4-yl]-amide], the IC50 was less than 500 nM. As to `Cc1cc(-c2cc(CS(=O)(=O)C(C)C)nc(Oc3ccc(F)cc3F)n2)cn(C)c1=O` [Example 95, 5-[2-(2,4-Difluoro-phenoxy)-6-(propane-2-sulfonylmethyl)-pyrimidin-4-yl]-1,3-dimethyl-1H-pyridin-2-one], the half-inhibitory concentration (IC50) was less than 500 nM. On to `CCS(=O)(=O)Cc1cc(-c2cc(C)c(=O)n(C)c2)nc(Oc2ccc(F)cc2F)n1` [Example 96, 5-[2-(2,4-Difluoro-phenoxy)-6-ethanesulfonylmethyl-pyrimidin-4-yl]-1,3-dimethyl-1H-pyridin-2-one], for which the IC50 is less than 500 nM. The figure for `CCCCS(=O)(=O)Nc1cc(-c2cn(C)c(=O)c3ccccc23)nc(Oc2c(C)cccc2C)n1` [Example 97, Butane-1-sulfonic acid [2-(2,6-dimethyl-phenoxy)-6-(2-methyl-1-oxo-1,2-dihydro-isoquinolin-4-yl)-pyrimidin-4-yl]-amide] is 500 to 5000 nM; for `CCCCS(=O)(=O)Nc1cc(-c2cc(C)c(=O)n(C)c2)nc(Oc2c(C)cc(F)cc2Cl)n1` [Example 98, Butane-1-sulfonic acid [2-(2-chloro-4-fluoro-6-methyl-phenoxy)-6-(1,5-dimethyl-6-oxo-1,6-dihydro-pyridin-3-yl)-pyrimidin-4-yl]-amide] it is less than 500 nM. Under `CCCS(=O)(=O)Nc1cc(-c2cc(C)c(=O)n(C)c2)nc(Oc2c(C)cc(F)cc2Cl)n1` [Example 99, Propane-1-sulfonic acid [2-(2-chloro-4-fluoro-6-methyl-phenoxy)-6-(1,5-dimethyl-6-oxo-1,6-dihydro-pyridin-3-yl)-pyrimidin-4-yl]-amide] stands less than 500 nM; under `Cc1cc(F)cc(Cl)c1Oc1nc(NS(=O)(=O)C(C)C)cc(-c2cc(C)c(=O)n(C)c2)n1` [Example 100, Propane-2-sulfonic acid [2-(2-chloro-4-fluoro-6-methyl-phenoxy)-6-(1,5-dimethyl-6-oxo-1,6-dihydro-pyridin-3-yl)-pyrimidin-4-yl]-amide], less than 500 nM; under `CCCS(=O)(=O)Nc1cc(-c2cc(C)c(=O)n(C)c2)nc(Oc2c(C)cccc2Cl)n1` [Example 101, Propane-1-sulfonic acid [2-(2-chloro-6-methyl-phenoxy)-6-(1,5-dimethyl-6-oxo-1,6-dihydro-pyridin-3-yl)-pyrimidin-4-yl]-amide], less than 500 nM. Under `CCCCS(=O)(=O)Nc1cc(-c2ccc(=O)n(C)c2)nc(Oc2c(C)cccc2Cl)n1` [Example 102, Butane-1-sulfonic acid [2-(2-chloro-6-methyl-phenoxy)-6-(1-methyl-6-oxo-1,6-dihydro-pyridin-3-yl)-pyrimidin-4-yl]-amide] stands less than 500 nM; under `CCCS(=O)(=O)Nc1cc(-c2ccc(=O)n(C)c2)nc(Oc2c(C)cccc2Cl)n1` [Example 103, Propane-1-sulfonic acid [2-(2-chloro-6-methyl-phenoxy)-6-(1-methyl-6-oxo-1,6-dihydro-pyridin-3-yl)-pyrimidin-4-yl]-amide], less than 500 nM; under `Cc1cccc(Cl)c1Oc1nc(NS(=O)(=O)C(C)C)cc(-c2ccc(=O)n(C)c2)n1` [Example 104, Propane-2-sulfonic acid [2-(2-chloro-6-methyl-phenoxy)-6-(1-methyl-6-oxo-1,6-dihydro-pyridin-3-yl)-pyrimidin-4-yl]-amide], less than 500 nM. Compound `COc1cc(-c2cc(NS(=O)(=O)C(C)C)nc(Oc3c(C)cccc3C)n2)cn(C)c1=O` [Example 105, N-(2-(2,6-dimethylphenoxy)-6-(5-methoxy-1-methyl-6-oxo-1,6-dihydropyridin-3-yl)pyrimidin-4-yl)propane-2-sulfonamide] had an IC50 of less than 500 nM.

For the compound `CCCCS(=O)(=O)Nc1cc(-c2cc(OC)c(=O)n(C)c2)nc(Oc2c(C)cccc2C)n1` [Example 106, N-(2-(2,6-dimethylphenoxy)-6-(5-methoxy-1-methyl-6-oxo-1,6-dihydropyridin-3-yl)pyrimidin-4-yl)butane-1-sulfonamide], the half-inhibitory concentration (IC50) was less than 500 nM.

`CCCS(=O)(=O)Nc1cc(Oc2c(C)cccc2Cl)nc(-c2cc(C)c(=O)n(C)c2)n1` [Example 107, Propane-1-sulfonic acid [6-(2-chloro-6-methyl-phenoxy)-2-(1,5-dimethyl-6-oxo-1,6-dihydro-pyridin-3-yl)-pyrimidin-4-yl]-amide] showed a concentration for half-maximal inhibition (IC50) of less than 500 nM. The figure for `CCCCS(=O)(=O)Nc1cc(-c2ccc(=O)n(C)c2)nc(Oc2c(C)cccc2C#N)n1` [Example 108, Butane-1-sulfonic acid [2-(2-cyano-6-methyl-phenoxy)-6-(1-methyl-6-oxo-1,6-dihydro-pyridin-3-yl)-pyrimidin-4-yl]-amide] is less than 500 nM; for `CCCS(=O)(=O)Nc1cc(-c2ccc(=O)n(C)c2)nc(Oc2c(C)cccc2C#N)n1` [Example 109, Propane-1-sulfonic acid [2-(2-cyano-6-methyl-phenoxy)-6-(1-methyl-6-oxo-1,6-dihydro-pyridin-3-yl)-pyrimidin-4-yl]-amide] it is less than 500 nM; for `Cc1cccc(C#N)c1Oc1nc(NS(=O)(=O)C(C)C)cc(-c2ccc(=O)n(C)c2)n1` [Example 110, Propane-2-sulfonic acid [2-(2-cyano-6-methyl-phenoxy)-6-(1-methyl-6-oxo-1,6-dihydro-pyridin-3-yl)-pyrimidin-4-yl]-amide] it is less than 500 nM. Under `CCCS(=O)(=O)Nc1cc(-c2cc(C)c(=O)n(C)c2)nc(Oc2ccncc2C)n1` [Example 111, Propane-1-sulfonic acid [6-(1,5-dimethyl-6-oxo-1,6-dihydro-pyridin-3-yl)-2-(3-methyl-pyridin-4-yloxy)-pyrimidin-4-yl]-amide] stands 500 to 5000 nM; under `CCCS(=O)(=O)Nc1cc(-c2cc(C)c(=O)n(C)c2)nc(Oc2cnccc2C)n1` [Example 112, Propane-1-sulfonic acid [6-(1,5-dimethyl-6-oxo-1,6-dihydro-pyridin-3-yl)-2-(4-methyl-pyridin-3-yloxy)-pyrimidin-4-yl]-amide], less than 500 nM; under `CCCCS(=O)(=O)Nc1cc(-c2cc(Cl)c(=O)n(C)c2)nc(Oc2c(C)cccc2C#N)n1` [Example 114, Butane-1-sulfonic acid [6-(5-chloro-1-methyl-6-oxo-1,6-dihydro-pyridin-3-yl)-2-(2-cyano-6-methyl-phenoxy)-pyrimidin-4-yl]-amide], less than 500 nM. The figure for `Cc1cccc(C#N)c1Oc1nc(NS(=O)(=O)CCCF)cc(-c2cc(C)c(=O)n(C)c2)n1` [Example 115, 3-Fluoro-propane-1-sulfonic acid [2-(2-cyano-6-methyl-phenoxy)-6-(1,5-dimethyl-6-oxo-1,6-dihydro-pyridin-3-yl)-pyrimidin-4-yl]-amide] is less than 500 nM; for `CCS(=O)(=O)Nc1cc(-c2ccc(=O)n(C)c2)nc(Oc2c(C)cccc2F)n1` [Example 116, Ethanesulfonic acid [2-(2-fluoro-6-methyl-phenoxy)-6-(1-methyl-6-oxo-1,6-dihydro-pyridin-3-yl)-pyrimidin-4-yl]-amide] it is less than 500 nM. In turn, `Cc1cccc(F)c1Oc1nc(NS(=O)(=O)C(C)C)cc(-c2cc(Cl)c(=O)n(C)c2)n1` [Example 117, Propane-2-sulfonic acid [6-(5-chloro-1-methyl-6-oxo-1,6-dihydro-pyridin-3-yl)-2-(2-fluoro-6-methyl-phenoxy)-pyrimidin-4-yl]-amide] registered a concentration for half-maximal inhibition (IC50) of less than 500 nM. Under `Cc1cccc(F)c1Oc1nc(NS(=O)(=O)C(C)C)cc(-c2ccc(=O)n(C)c2)n1` [Example 119, Propane-2-sulfonic acid [2-(2-fluoro-6-methyl-phenoxy)-6-(1-methyl-6-oxo-1,6-dihydro-pyridin-3-yl)-pyrimidin-4-yl]-amide] stands less than 500 nM; under `CCCS(=O)(=O)Nc1cc(-c2ccc(=O)n(C)c2)nc(Oc2c(C)cccc2F)n1` [Example 120, Propane-1-sulfonic acid [2-(2-fluoro-6-methyl-phenoxy)-6-(1-methyl-6-oxo-1,6-dihydro-pyridin-3-yl)-pyrimidin-4-yl]-amide], less than 500 nM. For `CCCCS(=O)(=O)Nc1cc(-c2cc(Cl)c(=O)n(C)c2)nc(Oc2c(C)cccc2F)n1` [Example 122, Butane-1-sulfonic acid [6-(5-chloro-1-methyl-6-oxo-1,6-dihydro-pyridin-3-yl)-2-(2-fluoro-6-methyl-phenoxy)-pyrimidin-4-yl]-amide], the IC50 is less than 500 nM. The figure for `Cc1cccc(C#N)c1Oc1nc(NS(=O)(=O)CCCF)cc(-c2ccc(=O)n(C)c2)n1` [Example 123, 3-Fluoro-propane-1-sulfonic acid [2-(2-cyano-6-methyl-phenoxy)-6-(1-methyl-6-oxo-1,6-dihydro-pyridin-3-yl)-pyrimidin-4-yl]-amide] is less than 500 nM; for `CCCCS(=O)(=O)Nc1cc(-c2ccc(=O)n(C)c2)nc(Oc2c(C)nn(C)c2C)n1` [Example 124, Butane-1-sulfonic acid [6-(1-methyl-6-oxo-1,6-dihydro-pyridin-3-yl)-2-(1,3,5-trimethyl-1H-pyrazol-4-yloxy)-pyrimidin-4-yl]-amide] it is less than 500 nM.

Consider `Cc1nn(C)c(C)c1Oc1nc(NS(=O)(=O)C(C)C)cc(-c2ccc(=O)n(C)c2)n1` [Example 125, Propane-2-sulfonic acid [6-(1-methyl-6-oxo-1,6-dihydro-pyridin-3-yl)-2-(1,3,5-trimethyl-1H-pyrazol-4-yloxy)-pyrimidin-4-yl]-amide], for which the half-maximal inhibitory concentration (IC50) is less than 500 nM.

Take `CCCS(=O)(=O)Nc1cc(-c2ccc(=O)n(C)c2)nc(Oc2c(C)nn(C)c2C)n1` [Example 126, Propane-1-sulfonic acid [6-(1-methyl-6-oxo-1,6-dihydro-pyridin-3-yl)-2-(1,3,5-trimethyl-1H-pyrazol-4-yloxy)-pyrimidin-4-yl]-amide]: the concentration for half-maximal inhibition (IC50) is less than 500 nM.

For the origin of these results see patent US10202360B2 (CELGENE QUANTICEL RESEARCH, INC., priority 2016, dated 2019).
